Measured values as given in ChEMBL document CHEMBL1127850.

Experiments:
[1] = target: D(1A) dopamine receptor (Rattus norvegicus) (UniProt P18901); assay: Tested for its affinity towards Dopamine receptor D1 in rat striatal membrane; assay type: cell membranes; details: Striatum
[2] = target: D(1A) dopamine receptor (Rattus norvegicus) (UniProt P18901)
Rattus norvegicus = species on record: Rattus norvegicus; assay: Tested effective dose for maximal stimulation of adenylate cyclase in rat striatal membrane; assay type: functional; details: Striatum
[3] = target: D(2) dopamine receptor (Homo sapiens) (UniProt P14416)
D(2) dopamine receptor (Homo sapiens), sequence (P14416 whole entry): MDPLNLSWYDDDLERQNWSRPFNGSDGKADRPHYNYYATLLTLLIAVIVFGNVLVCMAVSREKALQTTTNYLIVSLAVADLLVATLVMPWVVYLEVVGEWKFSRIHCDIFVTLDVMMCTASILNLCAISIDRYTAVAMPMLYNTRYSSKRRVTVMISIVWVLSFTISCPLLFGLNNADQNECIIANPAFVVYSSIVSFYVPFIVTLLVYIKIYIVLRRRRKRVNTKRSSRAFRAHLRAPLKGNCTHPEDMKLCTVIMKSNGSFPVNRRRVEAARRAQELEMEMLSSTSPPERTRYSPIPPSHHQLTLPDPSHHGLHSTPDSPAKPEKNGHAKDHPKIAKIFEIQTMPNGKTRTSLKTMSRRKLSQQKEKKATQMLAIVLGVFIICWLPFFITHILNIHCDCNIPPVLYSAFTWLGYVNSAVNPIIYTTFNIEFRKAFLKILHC
Description: Tested for binding affinity towards D2 receptor labelled by [3H]- spiperone as radioligand

D(1A) dopamine receptor (Rattus norvegicus), sequence (P18901 whole entry): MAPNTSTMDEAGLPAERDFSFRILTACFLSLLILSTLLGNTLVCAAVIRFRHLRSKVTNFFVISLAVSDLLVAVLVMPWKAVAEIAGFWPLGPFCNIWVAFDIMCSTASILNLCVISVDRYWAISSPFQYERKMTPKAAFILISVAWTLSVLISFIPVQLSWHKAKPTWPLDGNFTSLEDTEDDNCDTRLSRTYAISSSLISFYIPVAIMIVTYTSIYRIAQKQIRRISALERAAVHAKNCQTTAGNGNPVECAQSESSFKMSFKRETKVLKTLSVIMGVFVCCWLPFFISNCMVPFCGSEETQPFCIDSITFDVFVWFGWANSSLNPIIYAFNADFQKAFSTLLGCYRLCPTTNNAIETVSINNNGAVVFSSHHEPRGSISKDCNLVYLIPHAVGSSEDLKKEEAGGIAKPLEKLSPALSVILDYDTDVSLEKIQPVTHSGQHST

SMILES | pD2 [1] | K0.5 [2] [nM] | Stimulation (Rattus norvegicus) [%] | K0.5 [3] [nM]
CN1Cc2ccccc2[C@@H]2c3cccc4[nH]cc(c34)C[C@H]21 | 6.1 |  |  | 
Oc1cc2c(cc1O)[C@H]1c3ccccc3CN[C@@H]1CC2 (stereo in doubt; (-)-2) |  | 149 |  | 
Oc1cc2c(cc1O)[C@H]1c3ccccc3CN[C@@H]1CC2 (stereo in doubt; (+)-2) |  | 5.6 | 105 | 87.7
Oc1cc2c(cc1O)[C@H]1c3ccccc3CN[C@@H]1CC2 (racemic) |  | 11.6 | 95 | 
